Data published in US20230151010A1, “CRYSTALLINE FORMS OF (9R, 135S)-13- {4-[5-CHLORO-2-(4-CHLORO-1H,2,3- TRIAZOL- 1 -YL)PHENYL] -6-OXO- 1,6-DIHYDROPYRIMIDIN- 1-YL}-3-(DIFLUOROMETHYL)-9-METHYL-3,4,7,15- TETRAAZATRICYCLO [ 12.3.1.0 2·6] OCTADECA- 1(18), 2(6), 4, 14, 16-PENTAEN-8-ONE” (Bristol-Myers Squibb Company, priority 2020, published 2023).

Experiments:
Type in all cases: physicochemical
[1] = Thermogravimetric analysis (TGA); conditions: heating 10° C./min, nitrogen
Method: TA INSTRUMENT® models Q5000, Q500, or 2950 were used to generate TGA data. The measurement was made using standard TA Instruments Platinum pans. The measurement was made at a heating rate of 10° C./min, in a nitrogen environment from room temperature to 300° C., with a sample size about 10-30 mg.
Crystalline Forms A and J were analyzed by thermogravimetric analysis (TGA) according to the conditions described in the General Procedures. Exemplary TGA thermograms for Forms A and J are shown in FIGS. 4 and 13D, respectively.

[2] = Hygroscopicity of forms from the polymorph preparations (method not given)
[3] = VT-PXRD analysis of form change
[4] = Dynamic vapor sorption (DVS)
Method: About 20 mg of the crystalline form was transferred into a dynamic vapor sorption instrument from Surface Measurement Systems Ltd. (SMS). The weight change was recorded relative to the relative humidity (Target RH %) at 25° C.
Crystalline Forms A and J were analyzed by dynamic vapor sorption (DVS) according to the conditions described in the General Procedures.

C[C@@H]1CCC[C@H](n2cnc(-c3cc(Cl)ccc3-n3cc(Cl)nn3)cc2=O)c2cc(ccn2)-c2c(cnn2C(F)F)NC1=O [Form J, (9R,13S)-13-{4-[5-chloro-2-(4-chloro-1H-1,2,3-triazol-1-yl)phenyl]-6-oxo-1,6-dihydropyrimidin-1-yl}-3-(difluoromethyl)-9-methyl-3,4,7,15-tetraazatricyclo[12.3.1.0^2,6]octadeca-1(18),2(6),4,14,16-pentaen-8-one]
loss of weight in TGA ([1]; below about 250° C.): no significant loss of weight
onset of decomposition in TGA [1]: about 281 °C

C[C@@H]1CCC[C@H](n2cnc(-c3cc(Cl)ccc3-n3cc(Cl)nn3)cc2=O)c2cc(ccn2)-c2c(cnn2C(F)F)NC1=O [Form C, (9R,13S)-13-{4-[5-chloro-2-(4-chloro-1H-1,2,3-triazol-1-yl)phenyl]-6-oxo-1,6-dihydropyrimidin-1-yl}-3-(difluoromethyl)-9-methyl-3,4,7,15-tetraazatricyclo[12.3.1.0^2,6]octadeca-1(18),2(6),4,14,16-pentaen-8-one]
hygroscopicity [2]: non-hygroscopic
change in form on VT-PXRD analysis [3]: no change in form

C[C@@H]1CCC[C@H](n2cnc(-c3cc(Cl)ccc3-n3cc(Cl)nn3)cc2=O)c2cc(ccn2)-c2c(cnn2C(F)F)NC1=O [Form A, (9R,13S)-13-{4-[5-chloro-2-(4-chloro-1H-1,2,3-triazol-1-yl)phenyl]-6-oxo-1,6-dihydropyrimidin-1-yl}-3-(difluoromethyl)-9-methyl-3,4,7,15-tetraazatricyclo[12.3.1.0^2,6]octadeca-1(18),2(6),4,14,16-pentaen-8-one]
change of crystalline form after being subjected to DVS conditions ([4]; PXRD and IR post-DVS analysis): did not change
hygroscopicity indicated by DVS analysis ([4]; weight change vs relative humidity at 25° C.): not hygroscopic
